Values after ≈ are worked out from the molar mass of the structure shown.
Key:
Assay type in all cases: cell-based
[1] = system: Pseudomonas aeruginosa NCTC 10490; experiment: Antibacterial activity, minimum inhibitory concentration, Pseudomonas aeruginosa NCTC 10490; details: NCTC10490
Excerpt: (§1) The antibacterial activity (the minimum inhibitory concentration) of the compounds of this invention shown by formula I is shown in the following table in comparison to those of known compounds having similar structures, 7-[2-amino-2-(2-aminothiazol-4-yl)acetamido]-3-(1-methyl-tetrazol-5-yl)thiomethyl-Δ^3 -cephem-4-carboxylic acid (Compound A) having the following formula [drawing 8] and 7-[2-amino-2-(2-aminothiazol-4-yl)acetamido]cephalosporanic acid Compound B) having the following formula; [drawing 9]

[2] = system: Proteus vulgaris OXK US; experiment: Antibacterial activity, minimum inhibitory concentration, Proteus vulgaris OXK US
Excerpt: as §1

[3] = system: Bacillus subtilis ATCC 6633; experiment: Antibacterial activity, minimum inhibitory concentration, Bacillus subtilis ATCC 6633; details: ATCC6633
Excerpt: as §1

[4] = system: Pseudomonas aeruginosa ATCC 8689; experiment: Antibacterial activity, minimum inhibitory concentration, Pseudomonas aeruginosa ATCC 8689; details: ATCC8689
Excerpt: as §1

[5] = system: Staphylococcus aureus ATCC 6538P; experiment: Antibacterial activity, minimum inhibitory concentration, Staphylococcus aureus ATCC 6538P; details: ATCC6538P
Excerpt: as §1

[6] = system: Staphylococcus aureus Oonuma; experiment: Antibacterial activity, minimum inhibitory concentration, Staphylococcus aureus Oonuma; details: Staphylococcus aureus Oonuma (penicillin, Streptomycin-resistant)
Excerpt: as §1

[7] = system: Salmonella enteritidis 1891; experiment: Antibacterial activity, minimum inhibitory concentration, Salmonella enteritidis 1891; details: Salmonella enterica
Excerpt: as §1

[8] = system: Pseudomonas aeruginosa 99; experiment: Antibacterial activity, minimum inhibitory concentration, Pseudomonas aeruginosa 99; details: Pseudomonas aeruginosa 99 (Gentamicin-resistant)
Excerpt: as §1

[9] = system: Vibrio Hy 133; experiment: Antibacterial activity, minimum inhibitory concentration, Vibrio Hy 133; details: HY133
Excerpt: as §1

[10] = system: Corynebacterium xerosis; experiment: Antibacterial activity, minimum inhibitory concentration, Corynebacterium xerosis
Excerpt: as §1

[11] = system: Proteus mirabilis IFM OM-9; experiment: Antibacterial activity, minimum inhibitory concentration, Proteus mirabilis IFM OM-9; details: IFMOM9
Excerpt: as §1

[12] = system: Staphylococcus aureus 209P; experiment: Antibacterial activity, minimum inhibitory concentration, Staphylococcus aureus 209P
Excerpt: as §1

| Compound | MIC [1] | MIC [2] | MIC [3] | MIC [4] | MIC [5] | MIC [6] | MIC [7] | MIC [8] | MIC [9] | MIC [10] | MIC [11] | MIC [12] |
| --- | --- | --- | --- | --- | --- | --- | --- | --- | --- | --- | --- | --- |
| CC(=O)OCC1=C(C(=O)O)N2C(=O)C(NC(=O)C(NC(=O)c3cnc(C)cc3O)c3cscn3)C2SC1 (racemic) [Example 1, DL-7-[2-(4-hydroxy-6-methylnicotinamido)-2-(thiazol-4-yl)acetamido]-cephalosporanic acid] | 1.56 µg/mL (≈ 2.85 µM) | 1.56 µg/mL (≈ 2.85 µM) | 3.13 µg/mL (≈ 5.72 µM) | 25 µg/mL (≈ 45.7 µM) | 3.13 µg/mL (≈ 5.72 µM) | 6.25 µg/mL (≈ 11.4 µM) | 3.13 µg/mL (≈ 5.72 µM) | 25 µg/mL (≈ 45.7 µM) | 0.78 µg/mL (≈ 1.42 µM) | 3.13 µg/mL (≈ 5.72 µM) | 3.13 µg/mL (≈ 5.72 µM) | 1.56 µg/mL (≈ 2.85 µM) |
| CC(=O)OCC1=C(C(=O)O)N2C(=O)C(NC(=O)C(NC(=O)c3cnc(C)cc3O)c3csc(N)n3)C2SC1 (racemic) [Example 2, DL-7-[2-(4-hydroxy-6-methylnicotinamido)-2-(2-aminothiazol-4-yl)acetamido]cephalosporanic acid] | 1.56 µg/mL (≈ 2.77 µM) | 0.78 µg/mL (≈ 1.39 µM) | 6.25 µg/mL (≈ 11.1 µM) | 50 µg/mL (≈ 88.9 µM) | 6.25 µg/mL (≈ 11.1 µM) | 12.5 µg/mL (≈ 22.2 µM) | 0.78 µg/mL (≈ 1.39 µM) | 25 µg/mL (≈ 44.4 µM) | 0.78 µg/mL (≈ 1.39 µM) | 6.25 µg/mL (≈ 11.1 µM) | 0.39 µg/mL (≈ 0.693 µM) | 3.13 µg/mL (≈ 5.56 µM) |
| CC(=O)OCC1=C(C(=O)O)N2C(=O)C(NC(=O)C(NC(=O)c3csccc3=O)c3csc(N)n3)C2SC1 (racemic) [Example 3, DL-7-[2-(2-aminothiazol-4-yl)-2-(4-oxo-4H-thiopyran-3-carboxamido)-acetamido]cephalosporanic acid] | 25 µg/mL (≈ 44.2 µM) | 1.56 µg/mL (≈ 2.76 µM) | 3.13 µg/mL (≈ 5.53 µM) | 100 µg/mL (≈ 177 µM) | 3.13 µg/mL (≈ 5.53 µM) | 6.25 µg/mL (≈ 11 µM) | 0.39 µg/mL (≈ 0.69 µM) | 100 µg/mL (≈ 177 µM) | 0.78 µg/mL (≈ 1.38 µM) | 3.13 µg/mL (≈ 5.53 µM) | 0.78 µg/mL (≈ 1.38 µM) | 1.56 µg/mL (≈ 2.76 µM) |
| CC(=O)OCC1=C(C(=O)O)N2C(=O)C(NC(=O)C(NC(=O)c3csccc3=O)c3cscn3)C2SC1 (racemic) [Example 4, DL-7-[2-(4-oxo-4H-thiopyran-3-carboxamido)-2-(thiazol-4-yl)acetamido]cephalosporanic acid] | 6.25 µg/mL (≈ 11.4 µM) | 3.13 µg/mL (≈ 5.68 µM) | 1.56 µg/mL (≈ 2.83 µM) | 100 µg/mL (≈ 182 µM) | 1.56 µg/mL (≈ 2.83 µM) | 6.25 µg/mL (≈ 11.4 µM) | 6.25 µg/mL (≈ 11.4 µM) | 100 µg/mL (≈ 182 µM) | 0.78 µg/mL (≈ 1.42 µM) | 1.56 µg/mL (≈ 2.83 µM) | 6.25 µg/mL (≈ 11.4 µM) | 1.56 µg/mL (≈ 2.83 µM) |
| Cn1nnnc1SCC1=C(C(=O)O)N2C(=O)C(NC(=O)C(NC(=O)c3csccc3=O)c3cscn3)C2SC1 (racemic) [Example 5, DL-7-[2-(4-oxo-4H-thiopyran-3-carboxamido)-2-(thiazol-4-yl)acetamido]-3-(1-methyltetrazol-5-yl)thiomethyl-Δ^3-cephem-4-carboxylic acid] | 1.56 µg/mL (≈ 2.57 µM) | 1.56 µg/mL (≈ 2.57 µM) | 3.13 µg/mL (≈ 5.16 µM) | 50 µg/mL (≈ 82.4 µM) | 1.56 µg/mL (≈ 2.57 µM) | 6.25 µg/mL (≈ 10.3 µM) | 0.78 µg/mL (≈ 1.29 µM) | 50 µg/mL (≈ 82.4 µM) | 0.39 µg/mL (≈ 0.643 µM) | 3.13 µg/mL (≈ 5.16 µM) | 1.56 µg/mL (≈ 2.57 µM) | 0.78 µg/mL (≈ 1.29 µM) |
| Cn1nnnc1SCC1=C(C(=O)O)N2C(=O)C(NC(=O)C(NC(=O)c3csccc3=O)c3csc(N)n3)C2SC1 (racemic) [Example 6, DL-7-[2-(2-aminothiazol-4-yl)-2-(4-oxo-4H-thiopyran-3-carboxyamido)acetamido]-3-(1-methyltetrazol-5-yl)thiomethyl-Δ^3-cephem-4-carboxylic acid] | 0.78 µg/mL (≈ 1.25 µM) | 0.19 µg/mL (≈ 0.306 µM) | 1.56 µg/mL (≈ 2.51 µM) | 50 µg/mL (≈ 80.4 µM) | 1.56 µg/mL (≈ 2.51 µM) | 3.13 µg/mL (≈ 5.03 µM) | 0.19 µg/mL (≈ 0.306 µM) | 50 µg/mL (≈ 80.4 µM) | 0.78 µg/mL (≈ 1.25 µM) | 1.56 µg/mL (≈ 2.51 µM) | 0.09 µg/mL (≈ 0.145 µM) | 0.78 µg/mL (≈ 1.25 µM) |
| Cc1cc(O)c(C(=O)NC(C(=O)NC2C(=O)N3C(C(=O)O)=C(CSc4nnnn4C)CSC23)c2csc(N)n2)cn1 (racemic) [Example 7, DL-7-[2-(2-aminothiazol-4-yl)-2-(4-hydroxy-6-methylnicotinamido)acetamido]-3-(1-methyltetrazol-5-yl)thiomethyl-Δ^3-cephem-4-carboxylic acid] | 0.39 µg/mL (≈ 0.63 µM) | 0.19 µg/mL (≈ 0.307 µM) | 3.13 µg/mL (≈ 5.06 µM) | 25 µg/mL (≈ 40.4 µM) | 1.56 µg/mL (≈ 2.52 µM) | 6.25 µg/mL (≈ 10.1 µM) | 0.09 µg/mL (≈ 0.145 µM) | 12.5 µg/mL (≈ 20.2 µM) | 0.78 µg/mL (≈ 1.26 µM) | 6.25 µg/mL (≈ 10.1 µM) | 0.09 µg/mL (≈ 0.145 µM) | 1.56 µg/mL (≈ 2.52 µM) |
| Cc1cc(O)c(C(=O)NC(C(=O)NC2C(=O)N3C(C(=O)O)=C(CSc4nnnn4C)CSC23)c2cscn2)cn1 (racemic) [Example 8, DL-7-[2-(4-hydroxy-6-methylnicotinamido)-2-(thiazol-4-yl)-acetamido]-3-(1-methyltetrazol-5-yl)thiomethyl-Δ^3-cephem-4-carboxylic acid] | 0.78 µg/mL (≈ 1.29 µM) | 1.56 µg/mL (≈ 2.58 µM) | 3.13 µg/mL (≈ 5.18 µM) | 25 µg/mL (≈ 41.4 µM) | 1.56 µg/mL (≈ 2.58 µM) | 6.25 µg/mL (≈ 10.4 µM) | 0.78 µg/mL (≈ 1.29 µM) | 12.5 µg/mL (≈ 20.7 µM) | 0.78 µg/mL (≈ 1.29 µM) | 3.13 µg/mL (≈ 5.18 µM) | 1.56 µg/mL (≈ 2.58 µM) | 1.56 µg/mL (≈ 2.58 µM) |
| Cn1nnnc1SCC1=C(C(=O)O)N2C(=O)C(NC(=O)C(N)c3csc(N)n3)C2SC1 (stereo not drawn) [Compound A, 7-[2-amino-2-(2-aminothiazol-4-yl)acetamido]-3-(1-methyl-tetrazol-5-yl)thiomethyl-Δ^3-cephem-4-carboxylic acid, reference compound] | 100 µg/mL (≈ 207 µM) | 6.25 µg/mL (≈ 12.9 µM) | 12.5 µg/mL (≈ 25.8 µM) | > 100 µg/mL | 25 µg/mL (≈ 51.7 µM) | 100 µg/mL (≈ 207 µM) | 0.78 µg/mL (≈ 1.61 µM) | > 100 µg/mL | 6.25 µg/mL (≈ 12.9 µM) | 25 µg/mL (≈ 51.7 µM) | 1.56 µg/mL (≈ 3.23 µM) | 12.5 µg/mL (≈ 25.8 µM) |
| CC(=O)OCC1=C(C(=O)O)N2C(=O)C(NC(=O)C(N)c3csc(N)n3)C2SC1 (stereo not drawn) [Compound B, 7-[2-amino-2-(2-aminothiazol-4-yl)acetamido]cephalosporanic acid, reference compound] | > 100 µg/mL | 3.13 µg/mL (≈ 7.32 µM) | 1.56 µg/mL (≈ 3.65 µM) | > 100 µg/mL | 3.13 µg/mL (≈ 7.32 µM) | 12.5 µg/mL (≈ 29.2 µM) | 0.78 µg/mL (≈ 1.82 µM) | > 100 µg/mL | 1.56 µg/mL (≈ 3.65 µM) | 3.13 µg/mL (≈ 7.32 µM) | 1.56 µg/mL (≈ 3.65 µM) | 3.13 µg/mL (≈ 7.32 µM) |
